Results published in patent US20140235447A1, “METHODS FOR […] YIELD” (Syngenta Crop Protection LLC, priority 2013, published 2014).
Several values for one entry are separate records, joined by “and”; a condition that tells them apart may be missing. Equal entries are not always repeated.

Tests used:
Tropical corn = experiment: Treatment of tropical corn with single or multiple applications of 1-MCP, crop yield; format: in vivo; details: for Yield increase in kg/ha, Single app. @ V3-5: single application at stage of 3-5 fully collared leaves; for Yield increase in kg/ha, Single app @ V10: single application at stage of 10 leaves; for Yield increase in kg/ha, Double app. @ V3&10: two applications, 3-5 fully collared leaves and 10 leaf stage
Description: Tropical corn is treated with a combination of extruded granules of dextrose containing 0.1% 1-MCP and coated sand granules also containing 0.1% 1-MCP. The plants are treated with (1) a single application at the stage of 3-5 fully collared leaves; (2) a single application at the stage of 10 leaves; or (3) two applications with a first application at stage of 3-5 fully collared leaves and a second application at the 10 leaf stage. Dosages of 5 g/hectare, 10 g/hectare, and 25 g/hectare 1-MCP are applied for each of the three different treatment regimes.
The results are presented in Table 1 and FIG. 1 with yield being measured in kg/hectare. For each dosage amount the left bar designates treatment 1 (a single application at the stage of 3-5 fully collared leaves), the middle bar designates treatment 2 (a single application at the stage of 10 leaves), and the right hand bar designates treatment 3 (application at both the stage of 3-5 fully collared leaves and again at the 10 leaf stage). For each of the 5 g/hectare treatment, the 10 g/hectare treatment, and the 25 g/hectare treatment, the yield is increased by more than 150% for plants undergoing two treatments when compared to plants treated only once.

cotton = experiment: Treatment of tropical cotton with single or multiple applications of 1-MCP, seed cotton yield; format: in vivo; details: 9.6 GAI/HA
Description: Four different replicates of treatment of cotton are performed. […] Treatment A designates application of cyclopropene at the stage of Pin Head Square +14 days. Treatment B designates application of cyclopropene at the stage of first flowers. […]

In the case of `CC1=CC1` [1-MCP, 1-methylcyclopropene], the “Yield increase in kg/ha, Single app. @ V3-5” value (Tropical corn; 5 g/ha 1-MCP) is reported as 506 kg/ha, the “Yield increase in kg/ha, Single app @ V10” value (Tropical corn; 5 g/ha 1-MCP) is reported as 351 kg/ha and the “Yield increase in kg/ha, Double app. @ V3&10” value (Tropical corn; 5 g/ha 1-MCP) is reported as 1082 kg/ha. The “yield increase for plants undergoing two treatments compared to plants treated only once” value (“yield increase … to plants treated only once” below) (Tropical corn; 5 g/hectare treatment) was “more than 150%”, the “Yield increase in kg/ha, Single app. @ V3-5” value (Tropical corn; 10 g/ha 1-MCP) was 557 kg/ha and the “Yield increase in kg/ha, Single app @ V10” value (Tropical corn; 10 g/ha 1-MCP) was 618 kg/ha. For the same molecule, the “Yield increase in kg/ha, Double app. @ V3&10” value (Tropical corn; 10 g/ha 1-MCP) was 1580 kg/ha, the “yield increase … to plants treated only once” value (Tropical corn; 10 g/hectare treatment) was “more than 150%” and the “Yield increase in kg/ha, Single app. @ V3-5” value (Tropical corn; 20-25 g/ha 1-MCP) was 826 kg/ha. The “Yield increase in kg/ha, Single app @ V10” value (Tropical corn; 20-25 g/ha 1-MCP) was 543 kg/ha, the “Yield increase in kg/ha, Double app. @ V3&10” value (Tropical corn; 20-25 g/ha 1-MCP) was 1539 kg/ha and the “yield increase … to plants treated only once” value (Tropical corn; 25 g/hectare treatment) was “more than 150%”. For the same molecule, the “Yield difference between treated plots and untreated checks, Double Applications AB: Floral buds enlarged/Early bloom, average” value (cotton; average of trials 1-5) was 713 kg/ha of seed cotton, the “Yield difference between treated plots and untreated checks, Double Applications BC: Early bloom/10% of bolls at final size, average” value (cotton; average of trials 1-5) was 796 kg/ha of seed cotton and the “Yield difference between treated plots and untreated checks, Single Application A: Floral buds distinctly enlarged, average” value (cotton; average of trials 1-5) was 577 kg/ha of seed cotton. For the same molecule, the “Yield difference between treated plots and untreated checks, Single Application B: Early bloom, average” value (cotton; average of trials 1-5) was 568 kg/ha of seed cotton, the “Yield difference between treated plots and untreated checks, Single Application C: 10% of bolls at final size, average” value (cotton; average of trials 1-5) was 512 kg/ha of seed cotton and the “Yield difference between treated plots and untreated checks, Double Applications AB: Floral buds enlarged/Early bloom” value (cotton; individual trials 1-5) was 560 kg/ha of seed cotton and 185 kg/ha of seed cotton and 883 kg/ha of seed cotton and 1563 kg/ha of seed cotton and 375 kg/ha of seed cotton. For the same molecule, the “Yield difference between treated plots and untreated checks, Double Applications BC: Early bloom/10% of bolls at final size” value (cotton; individual trials 1-5) was 696 kg/ha of seed cotton and 262 kg/ha of seed cotton and 1042 kg/ha of seed cotton and 1667 kg/ha of seed cotton and 313 kg/ha of seed cotton, the “Yield difference between treated plots and untreated checks, Single Application A: Floral buds distinctly enlarged” value (cotton; individual trials 1-5) was 571 kg/ha of seed cotton and 167 kg/ha of seed cotton and 767 kg/ha of seed cotton and 1132 kg/ha of seed cotton and 250 kg/ha of seed cotton and the “Yield difference between treated plots and untreated checks, Single Application B: Early bloom” value (cotton; individual trials 1-5) was 839 kg/ha of seed cotton and 369 kg/ha of seed cotton and 767 kg/ha of seed cotton and 757 kg/ha of seed cotton and 106 kg/ha of seed cotton. The “Yield difference between treated plots and untreated checks, Single Application C: 10% of bolls at final size” value (cotton; individual trials 1-5) was 780 kg/ha of seed cotton and 280 kg/ha of seed cotton and 792 kg/ha of seed cotton and 715 kg/ha of seed cotton and −6 kg/ha of seed cotton.
